Test results from patent US7618961B2, “Inhibitors of 11-beta-hydroxy steroid dehydrogenase type 1” (Biovitrum AB, priority 2000, dated 2009).
Where a name gives a salt, the structure may show the parent alone.

| SMILES | melting point |
| --- | --- |
| O=C(O)Cc1csc(NS(=O)(=O)c2cc(Cl)sc2Cl)n1 (as salt: salt) [Example 85A, 2-(2-{[(2,5-Dichloro-3-thienyl)sulfonyl]amino}-1,3-thiazol-4-yl)acetic acid] | 174 °C |
| Cc1c(Cl)cccc1S(=O)(=O)Nc1nc(CC(=O)O)cs1 (as salt: salt) [Example 87A, 2-(2-{[(3-Chloro-2-methylphenyl)sulfonyl]amino}-1,3-thiazol-4-yl)acetic acid] | 198 °C |
| CCOC(=O)Cc1csc(NS(=O)(=O)c2ccc(C)cc2)n1 [Example 5A, Ethyl 2-(2-(((4-methylphenyl)sulfonyl)amino)-1,3-thiazol-4-yl)acetate] | 173 °C |
| CCOC(=O)Cc1csc(NS(=O)(=O)c2cccc(Cl)c2C)n1 [Example 8A, Ethyl 2-(2-{[(3-chloro-2-methylphenyl)sulfonyl]amino}-1,3-thiazol-4-yl)acetate] | 154 °C |
| CCOC(=O)Cc1csc(NS(=O)(=O)c2ccc(-c3ccccc3)cc2)n1 [Example 10A, Ethyl 2-{2-[([1,1′-biphenyl]-4-ylsulfonyl)amino]-1,3-thiazol-4-yl}acetate] | 182 °C |
| CCOC(=O)Cc1csc(NS(=O)(=O)c2cccc(Br)c2)n1 [Example 12A, Ethyl 2-(2-{[(3-bromophenyl)sulfonyl]amino}-1,3-thiazol-4-yl)acetate] | 155 °C |
| CCOC(=O)Cc1csc(NS(=O)(=O)c2ccccc2C(F)(F)F)n1 [Example 25A, Ethyl [2-({[2-(trifluoromethyl)phenyl]sulfonyl}amino)-1,3-thiazol-4-yl]acetate] | 171 °C |
| CCOC(=O)Cc1csc(NS(=O)(=O)c2cccc(C(F)(F)F)c2)n1 [Example 26A, Ethyl [2-({[3-(trifluoromethyl)phenyl]sulfonyl}amino)-1,3-thiazol-4-yl]acetate] | 145 °C |
| CCOC(=O)Cc1csc(NS(=O)(=O)c2ccc(C(F)(F)F)cc2)n1 [Example 27A, Ethyl [2-({[4-(trifluoromethyl)phenyl]sulfonyl}amino)-1,3-thiazol-4-yl]acetate] | 174 °C |
| CCOC(=O)Cc1csc(NS(=O)(=O)c2ccc(Br)cc2)n1 [Example 28A, Ethyl 2-(2-{[(4-bromophenyl)sulfonyl]amino}-1,3-thiazol-4-yl)acetate] | 183 °C |
| CCOC(=O)Cc1csc(NS(=O)(=O)c2cc(Cl)ccc2Cl)n1 [Example 77A, Ethyl (2-{[(2,5-dichlorophenyl)sulfonyl]amino}-1,3-thiazol-4-yl)acetate] | 171 °C |
| Cc1ccc(S(=O)(=O)Nc2nc(CC(=O)O)cs2)cc1 [Example 84A, 2-(2-{[(4-Methylphenyl)sulfonyl]amino}-1,3-thiazol-4-yl)acetic acid] | 187 °C |
| O=C(O)Cc1csc(NS(=O)(=O)c2ccccc2Cl)n1 [Example 86A, (2-{[(2-Chlorophenyl)sulfonyl]amino}-1,3-thiazol-4-yl)acetic acid] | 176 °C |
| Cc1c(Cl)cccc1S(=O)(=O)Nc1nc(CC(=O)Oc2ccccc2)cs1 [Example 89A, Phenyl 2-(2-{[(3-chloro-2-methylphenyl)sulfonyl]amino}-1,3-thiazol-4-yl)acetate] | 189 °C |
| COC(=O)Cc1csc(NS(=O)(=O)c2cccc(Cl)c2C)n1 [Example 90A, Methyl (2-{[(3-chloro-2-methylphenyl)sulfonyl]amino}-1,3-thiazol-4-yl)acetate] | 187 °C |
| CNC(=O)Cc1csc(NS(=O)(=O)c2cc(Cl)sc2Cl)n1 [Example 99A, 2-(2-{[(2,5-Dichloro-3-thienyl)sulfonyl]amino}-1,3-thiazol-4-yl)-N-methylacetamide] | 183 °C |
| CCNC(=O)Cc1csc(NS(=O)(=O)c2ccc(F)cc2F)n1 [Example 102A, 2-(2-{[(2,4-Difluorophenyl)sulfonyl]amino}-1,3-thiazol-4-yl)-N-ethylacetamide] | 150 °C |

| SMILES | melting point |
| --- | --- |
| CNC(=O)Cc1csc(NS(=O)(=O)c2cccc(Cl)c2C)n1 [Example 106A, 2-(2-{[(3-Chloro-2-methylphenyl)sulfonyl]amino}-1,3-thiazol-4-yl)-N-methylacetamide] | 165 °C |
| CCNC(=O)Cc1csc(NS(=O)(=O)c2cccc(Cl)c2C)n1 [Example 107A, 2-(2-{[(3-Chloro-2-methylphenyl)sulfonyl]amino}-1,3-thiazol-4-yl)-N-ethylacetamide] | 96 °C |
| Cc1c(Cl)cccc1S(=O)(=O)Nc1nc(CC(=O)Nc2ccccc2)cs1 [Example 108A, 2-(2-{[(3-Chloro-2-methylphenyl)sulfonyl]amino}-1,3-thiazol-4-yl)-N-phenylacetamide] | 202 °C |
| Cc1c(Cl)cccc1S(=O)(=O)Nc1nc(CC(=O)NC(c2ccccc2)c2ccccc2)cs1 [Example 113A, N-Benzhydryl-2-(2-{[(3-chloro-2-methylphenyl)sulfonyl]amino}-1,3-thiazol-4-yl)acetamide] | 200 °C |
| Cc1c(Cl)cccc1S(=O)(=O)Nc1nc(CC(=O)N(C)C)cs1 [Example 131A, 2-(2-{[(3-Chloro-2-methylphenyl)sulfonyl]amino}-1,3-thiazol-4-yl)-N,N-dimethylacetamide] | 84 °C |
| Cc1c(Cl)cccc1S(=O)(=O)Nc1nc(CC(=O)N2CCCC2)cs1 [Example 142A, 3-Chloro-2-methyl-N-{4-[2-oxo-2-(1-pyrrolidinyl)ethyl]-1,3-thiazol-2-yl}benzenesulfonamide] | 107 °C |
| Cc1c(Cl)cccc1S(=O)(=O)Nc1nc(CC(=O)N2CCOCC2)cs1 [Example 148A, 3-Chloro-2-methyl-N-{4-[2-(4-morpholinyl)-2-oxoethyl]-1,3-thiazol-2-yl}benzenesulfonamide] | 208 to 209 °C |
| Cc1cc(Cl)cc(Cl)c1S(=O)(=O)Nc1nc(CC(=O)N2CCOCC2)c(C)s1 [Example 159A, 2,4-Dichloro-6-methyl-N-{5-methyl-4-[2-(4-morpholinyl)2-oxoethyl]-1,3-thiazol-2-yl}benzenesulfonamide] | 186 to 187 °C |
| Cc1sc(NS(=O)(=O)c2ccc(-c3ccccc3)cc2)nc1CC(=O)N1CCOCC1 [Example 160A, N-{5-methyl-4-[2-(4-morpholinyl)-2-oxoethyl]-1,3-thiazol-2-yl}[1,1′-biphenyl]-4-sulfonamide] | 204 to 206 °C |
| Cc1sc(NS(=O)(=O)c2c(Cl)cc(Cl)cc2Cl)nc1CC(=O)N1CCOCC1 [Example 161A, 2,4,6-trichloro-N-{5-methyl-4-[2-(4-morpholinyl)-2-oxoethyl]-1,3-thiazol-2-yl}benzenesulfonamide] | 216 to 217 °C |
| Cc1sc(NS(=O)(=O)c2cccc(Cl)c2C)nc1CC(=O)N1CCOCC1 [Example 162A, 3-chloro-2-methyl-N-{5-methyl-4-[2-(4-morpholinyl)-2-oxoethyl]-1,3-thiazol-2-yl}benzenesulfonamide] | 194 to 195 °C |
| Cc1c(Cl)cccc1S(=O)(=O)Nc1nc(CC(=O)N2CCSCC2)cs1 [Example 165A, 3-Chloro-2-methyl-N-{4-[2-oxo-2-(4-thiomorpholinyl)ethyl]-1,3-thiazol-2-yl}benzenesulfonamide] | 103 to 106 °C |
| CCOCCc1nc(NS(=O)(=O)c2cccc(Cl)c2C)sc1CN(C)C [Example 190A, 3-Chloro-N-[5-[(dimethylamino)methyl]-4(2-ethoxyethyl)-1,3-thiazol-2-yl]-2-methylbenzenesulfonamide] | 152 to 153 °C |
| CCC(=O)OCCc1csc(NS(=O)(=O)c2cccc(Cl)c2C)n1 [Example 192B, 2-(2-{[(3-Chloro-2-methylphenyl)sulfonyl]amino}-1,3-thiazol-4-yl)ethyl propionate] | 122 °C |
| Cc1c(Cl)cccc1S(=O)(=O)Nc1nc(CCOC(=O)C(C)C)cs1 [Example 193A, 2-(2-{[(3-Chloro-2-methylphenyl)sulfonyl]amino}-1,3-thiazol-4-yl)ethyl 2-methylpropanoate] | 118 °C |
| Cc1c(Cl)cccc1S(=O)(=O)Nc1nc(CCOC(=O)N2CCOCC2)cs1 [Example 196A, 2-(2-{[(3-Chloro-2-methylphenyl)sulfonyl]amino}-1,3-thiazol-4-yl)ethyl 4-morpholinecarboxylate] | 161 °C |
